Measured values published in patent USRE48711E1, “Apoptosis signal-regulating kinase inhibitors” (Gilead Sciences, Inc., priority 2009, dated 2021).

Target: ASK1 (Apoptosis Signal-Regulating Kinase 1) (Homo sapiens (Human), UniProt Q99683)
Assay: ASK1 (Apoptosis Signal-Regulating Kinase 1) TR-FRET Kinase Assay (Biochemical IC50)
Details: TR-FRET, biotin-MBP substrate, 20 min pre-incubation, ATP added as 300 μM solution

Chain of ASK1 (Apoptosis Signal-Regulating Kinase 1) (Q99683 649-946): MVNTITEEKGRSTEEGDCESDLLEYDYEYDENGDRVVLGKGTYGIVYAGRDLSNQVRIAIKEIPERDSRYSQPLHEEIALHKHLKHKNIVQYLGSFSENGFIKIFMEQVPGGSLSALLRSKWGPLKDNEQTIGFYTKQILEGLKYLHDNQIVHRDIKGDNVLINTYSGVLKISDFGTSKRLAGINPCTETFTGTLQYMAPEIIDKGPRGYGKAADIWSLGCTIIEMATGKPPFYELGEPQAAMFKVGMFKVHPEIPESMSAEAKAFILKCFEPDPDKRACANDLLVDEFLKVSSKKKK

Row | SMILES | IC50
1 | CC(CN1CCCC1)n1cnnc1-c1cccc(NC(=O)c2cc(-c3ccc(C4CC4)nc3)ccn2)n1 (stereo not drawn) [Example 245, 6-cyclopropyl-N-(6-(4-(1-(pyrrolidin-1-yl)propan-2-yl)-4H-1,2,4-triazol-3-yl)pyridin-2-yl)-3,4′-bipyridine-2′-carboxamide] | 36 nM
2 | NC(=O)c1cncc(-c2ccnc(C(=O)Nc3cccc(-c4nncn4C4CC4)c3)c2)c1 [Example 64, N2′-(3-(4-cyclopropyl-4H-1,2,4-triazol-3-yl)phenyl)-3,4′-bipyridine-2′,5-dicarboxamide] | 17 nM
3 | O=C(Nc1cccc(-c2nncn2C2CC2)c1)c1cc(-c2ccc(N3CCNC3=O)cc2)ccn1 [Example 105, N-(3-(4-cyclopropyl-4H-1,2,4-triazol-3-yl)phenyl)-4-(4-(2-oxoimidazolidin-1-yl)phenyl)picolinamide] | 15 nM
4 | O=C(Nc1cccc(-c2nncn2C2CC2)n1)c1cccc(-n2cnc(C(O)C(F)(F)F)c2)c1 (stereo not drawn) [Example 208, N-(6-(4-cyclopropyl-4H-1,2,4-triazol-3-yl)pyridin-2-yl)-3-(4-(2,2,2-trifluoro-1-hydroxyethyl)-1H-imidazol-1-yl)benzamide] | 5 nM
5 | O=C(Nc1cccc(-c2nncn2C2CC2)n1)c1cc(-c2cnc3ccccc3c2)ccn1 [Example 112, N-(6-(4-cyclopropyl-4H-1,2,4-triazol-3-yl)pyridin-2-yl)-4-(quinolin-3-yl)picolinamide] | 14 nM
6 | O=C(Nc1cccc(-c2nncn2C2CC2)n1)c1cccc(-n2cnc3c2CCCC3)c1 [Example 212, N-(6-(4-cyclopropyl-4H-1,2,4-triazol-3-yl)pyridin-2-yl)-3-(4,5,6,7-tetrahydro-1H-benzo[d]imidazol-1-yl)benzamide] | 9 nM
7 | O=C(Nc1cccc(-c2nncn2C2CC2)c1)c1cc(-c2ccc(C(F)(F)F)nc2)ccn1 [Example 52, N-(3-(4-cyclopropyl-4H-1,2,4-triazol-3-yl)phenyl)-6-(trifluoromethyl)-3,4′-bipyridine-2′-carboxamide] | 12 nM
8 | CC[C@H](C)n1cnnc1-c1cccc(NC(=O)c2cc(-c3ccc(C4CC4)nc3)ccn2)c1 [Example 237, (S)-N-(3-(4-sec-butyl-4H-1,2,4-triazol-3-yl)phenyl)-6-cyclopropyl-3,4′-bipyridine-2′-carboxamide] | 38 nM
9 | O=C(Nc1cccc(-c2nncn2C2CC2)c1)c1cc(-n2cnc3c2CCNC3C(F)(F)F)ccn1 (stereo not drawn) [Example 194, N-(3-(4-cyclopropyl-4H-1,2,4-triazol-3-yl)phenyl)-4-(4-(trifluoromethyl)-4,5,6,7-tetrahydro-1H-imidazo[4,5-c]pyridin-1-yl)picolinamide] | 12 nM
10 | O=C(Nc1cccc(-c2nncn2C2CC2)c1)c1cc(-n2cnc(C(F)(F)C(F)(F)F)c2)ccn1 [Example 198, N-(3-(4-cyclopropyl-4H-1,2,4-triazol-3-yl)phenyl)-4-(4-(perfluoroethyl)-1H-imidazol-1-yl)picolinamide] | 19 nM
11 | O=C(Nc1cccc(-c2nncn2C2CC2)c1)c1cc(-c2cnc3ccccn23)ccn1 [Example 69, N-(3-(4-cyclopropyl-4H-1,2,4-triazol-3-yl)phenyl)-4-(imidazo[1,2-a]pyridin-3-yl)picolinamide] | 11 nM
12 | O=C(Nc1cccc(-c2nncn2C2CC2)c1)c1cc(-n2cnc3cccnc32)ccn1 [Example 82, N-(3-(4-cyclopropyl-4H-1,2,4-triazol-3-yl)phenyl)-4-(3H-imidazo[4,5-b]pyridin-3-yl)picolinamide] | 20 nM
13 | Cn1cc(-c2ccnc(C(=O)Nc3cccc(-c4nncn4C4CC4)c3)c2)cn1 [Example 68, N-(3-(4-cyclopropyl-4H-1,2,4-triazol-3-yl)phenyl)-4-(1-methyl-1H-pyrazol-4-yl)picolinamide] | 39 nM
14 | O=C(Nc1cccc(-c2nncn2C2CC2)c1)c1cc(-c2ccc(C3CCC3)nc2)ccn1 [Example 103, 6-cyclobutyl-N-(3-(4-cyclopropyl-4H-1,2,4-triazol-3-yl)phenyl)-3,4′-bipyridine-2′-carboxamide] | 11 nM
15 | O=C(Nc1cccc(-c2nncn2C2CC2)c1)c1cc(-c2ccc(N3CCCC3)nc2)ccn1 [Example 47, N-(3-(4-cyclopropyl-4H-1,2,4-triazol-3-yl)phenyl)-6-(pyrrolidin-1-yl)-3,4′-bipyridine-2′-carboxamide] | 32 nM
16 | O=C(Nc1cccc(-c2nncn2C2CC2)n1)c1cc(-c2ccc(C3CC3)nc2)ccc1F [Example 224, N-(6-(4-cyclopropyl-4H-1,2,4-triazol-3-yl)pyridin-2-yl)-5-(6-cyclopropylpyridin-3-yl)-2-fluorobenzamide] | 13 nM
17 | NC(=O)CCn1cnnc1-c1cccc(NC(=O)c2cc(-c3cccnc3)ccn2)c1 [Example 16, N-(3-(4-(3-amino-3-oxopropyl)-4H-1,2,4-triazol-3-yl)phenyl)-3,4′-bipyridine-2′-carboxamide] | 114 nM
18 | Cn1cncc1-c1ccnc(C(=O)Nc2cccc(-c3nncn3C)c2)c1 [Example 18, 4-(1-methyl-1H-imidazol-5-yl)-N-(3-(4-methyl-4H-1,2,4-triazol-3-yl)phenyl)picolinamide] | 39 nM

Row | SMILES | IC50
19 | O=C(Nc1cccc(-c2nncn2C2CC2)c1)c1cc(-c2cncc(Cl)c2)ccn1 [Example 76, 5-chloro-N-(3-(4-cyclopropyl-4H-1,2,4-triazol-3-yl)phenyl)-3,4′-bipyridine-2′-carboxamide] | 34 nM
20 | O=C(Nc1cc(F)cc(-c2nncn2C2CC2)c1)c1cc(-c2ccc(C3CC3)nc2)ccn1 [Example 168, 6-cyclopropyl-N-(3-(4-cyclopropyl-4H-1,2,4-triazol-3-yl)-5-fluorophenyl)-3,4′-bipyridine-2′-carboxamide] | 143 nM
21 | CC(C)(C)Cc1ccc(-c2ccnc(C(=O)Nc3cccc(-c4nncn4C4CC4)c3)c2)cn1 [Example 115, N-(3-(4-cyclopropyl-4H-1,2,4-triazol-3-yl)phenyl)-6-neopentyl-3,4′-bipyridine-2′-carboxamide] | 15 nM
22 | O=C(Nc1cccc(-c2nncn2C2CCOCC2)c1)c1cc(-c2cccnc2)ccn1 [Example 26, N-(3-(4-(tetrahydro-2H-pyran-4-yl)-4H-1,2,4-triazol-3-yl)phenyl)-3,4′-bipyridine-2′-carboxamide] | 1970 nM
23 | Cn1cnnc1-c1cccc(NC(=O)c2cc(N3CCNC(=O)C3)ccn2)c1 [Example 32, N-(3-(4-methyl-4H-1,2,4-triazol-3-yl)phenyl)-4-(3-oxopiperazin-1-yl)picolinamide] | 569 nM
24 | O=C(Nc1cccc(-c2nncn2C2CC2)c1)c1cc(-c2ccccc2)ccn1 [Example 14, N-(3-(4-cyclopropyl-4H-1,2,4-triazol-3-yl)phenyl)-4-phenylpicolinamide] | 279 nM
25 | O=C(Nc1cccc(-c2nncn2C2CC2)c1)c1cc(-c2cnc3cc[nH]c3c2)ccn1 [Example 128, N-(3-(4-cyclopropyl-4H-1,2,4-triazol-3-yl)phenyl)-4-(1H-pyrrolo[3,2-b]pyridin-6-yl)picolinamide] | 6 nM
26 | CC(C)CSc1ccc(-c2ccnc(C(=O)Nc3cccc(-c4nncn4C4CC4)c3)c2)cn1 [Example 132, N-(3-(4-cyclopropyl-4H-1,2,4-triazol-3-yl)phenyl)-6-(isobutylthio)-3,4′-bipyridine-2′-carboxamide] | 150 nM
27 | O=C(Nc1cccc(-c2nncn2C2CC2)c1)c1cc(-c2cnc3ccn(CC(F)(F)F)c3c2)ccn1 [Example 244, N-(3-(4-cyclopropyl-4H-1,2,4-triazol-3-yl)phenyl)-4-(1-(2,2,2-trifluoroethyl)-1H-pyrrolo[3,2-b]pyridin-6-yl)picolinamide] | 25 nM
28 | CC(C)NS(=O)(=O)c1ccc(-c2ccnc(C(=O)Nc3cccc(-c4nncn4C4CC4)c3)c2)cc1 [Example 99, N-(3-(4-cyclopropyl-4H-1,2,4-triazol-3-yl)phenyl)-4-(4-(N-isopropylsulfamoyl)phenyl)picolinamide] | 17 nM
29 | O=C(Nc1cccc(-c2nncn2C2CC2)c1)c1cc(-c2cccnc2)ccn1 [Example 15, N-(3-(4-cyclopropyl-4H-1,2,4-triazol-3-yl)phenyl)-3,4′-bipyridine-2′-carboxamide] | 11 nM
30 | O=C(Nc1cccc(-c2nncn2C2CC2)c1)c1cc(-c2ccc(C3CC3)nc2)ccn1 [Example 50, 6-cyclopropyl-N-(3-(4-cyclopropyl-4H-1,2,4-triazol-3-yl)phenyl)-3,4′-bipyridine-2′-carboxamide] | 8 nM
31 | O=C(Nc1cccc(-c2nncn2C2CC2)c1)c1cc(-c2ccc(O)nc2)ccn1 [Example 31, N-(3-(4-cyclopropyl-4H-1,2,4-triazol-3-yl)phenyl)-6-hydroxy-3,4′-bipyridine-2′-carboxamide] | 63 nM
32 | CC(c1ccccc1)n1cnnc1-c1cccc(NC(=O)c2cc(-n3cnc(C4CC4)c3)ccn2)c1 (stereo not drawn) [Example 186, 4-(4-cyclopropyl-1H-imidazol-1-yl)-N-(3-(4-(1-phenylethyl)-4H-1,2,4-triazol-3-yl)phenyl)picolinamide] | 30 nM
33 | O=C(Nc1cccc(-c2nncn2C2CC2)c1)c1cc(-c2ccc(CC(F)(F)F)nc2)ccn1 [Example 171, N-(3-(4-cyclopropyl-4H-1,2,4-triazol-3-yl)phenyl)-6-(2,2,2-trifluoroethyl)-3,4′-bipyridine-2′-carboxamide] | 7 nM
34 | CS(=O)(=O)c1ccccc1-c1ccnc(C(=O)Nc2cccc(-c3nncn3C3CC3)c2)c1 [Example 78, N-(3-(4-cyclopropyl-4H-1,2,4-triazol-3-yl)phenyl)-4-(2-(methylsulfonyl)phenyl)picolinamide] | 572 nM
35 | O=C(Nc1cccc(-c2nncn2C2CC2)c1)c1cc(-c2ccc(-c3ccc(Cl)nc3)nc2)ccn1 [Example 70, 6-Chloro-[3,2′:5′,4′]terpyridine-2″-carboxylic acid [3-(4-cyclopropyl-4H-[1,2,4]triazol-3-yl)-phenyl]-amide] | 106 nM
36 | O=C(Nc1cccc(-c2nncn2C2CC2)n1)c1ccnc(-c2ccc(C3CC3)nc2)c1 [Example 260, 6′-cyclopropyl-N-(6-(4-cyclopropyl-4H-1,2,4-triazol-3-yl)pyridin-2-yl)-2,3′-bipyridine-4-carboxamide] | 30 nM
